# Test results published in patent US20070053955A1, “Compositions and methods for improving cellular survival and reducing apoptosis after ischemic episode in the brain” (NESTEC S.A., priority 2005, published 2007).
# What was measured:
# Type in all cases: in vivo
# [1] = system: transient cerebral ischemia in an ovariectomized rat model; experiment: Cerebral ischemia-induced apoptosis, DNA fragmentation by TUNEL staining after tMCA occlusion; conditions: mean of three brain regions, normalized to DAPI cell count, vs control diet (FIG. 3)
# [2] = system: transient cerebral ischemia in an ovariectomized rat model; experiment: Transient middle cerebral artery (tMCA) occlusion, ischemic lesion (infarct) volume by TTC staining; conditions: all rats, vs control diet, 60 min tMCA occlusion, 24 h reperfusion (FIG. 1)
# Experimental: Animals. Female Charles Rivers Sprague-Dawley rats (250 g, Wilmington, Mass.) were acclimatized to animal facilities three days prior to surgery with a 12 hour light-dark cycle. Bilateral ovariectomy was performed 2 weeks before diet feeding began. Four weeks after the start of diet feeding, transient middle cerebral artery (tMCA) occlusion under anesthesia was performed following intraperitoneal (i.p.) injection of ketamine (60 mg/kg) and xylazine (10 mg/kg).
# Diet and Hormone Administration. Fourteen to 15 rats per group were randomly assigned to one of five treatment groups. These groups were as follows: […]
# All diets were fed ad libitum to the rats for four weeks. […] Also once per week, body weights and food intake were determined. […]
# Middle cerebral artery occlusion and samples preparation. […] Rectal temperature was monitored and maintained between 36.5 and 37° C. with a heating pad throughout the procedure. […]
# Some animals were eliminated from the study during the protocol. The number of animals quantified for lesion volume ranged from 12 to 15 per group.
# Statistical methods. Results were analyzed with one-way analysis of variance (ANOVA) using Prism software(Graphpad Inc; San Diego, Calif.). The significance of differences among groups was determined by one-way ANOVA followed by Tukey's multiple comparison tests. All values were expressed as mean±SEM.
# [3] = system: growth factors and anti-inflammatory proteins; experiment: Expression of growth factors and anti-inflammatory proteins in dogs given supplemental arginine; conditions: dietary supplementation
Compound,TUNEL staining / TUNEL-positive cell counts [1],effect on infarct size / mean infarct volume [2],"reduction of infarct volume ([2]; diets fed 4 weeks, E2 implant 1 week)",expression of growth factors and anti-inflammatory proteins [3]
"C[C@]12CC[C@@H]3c4ccc(O)cc4CC[C@H]3[C@@H]1CC[C@@H]2O [Estradiol, 17β-estradiol]",substantial reduction in TUNEL staining,reduced infarct size,68%,–
"N=C(N)NCCC[C@H](N)C(=O)O [arginine, L-arginine]",–,–,–,increased expression of multiple growth factors and anti-inflammatory proteins in a dose-dependent manner
